The supplement of paper PMC11451515

System: NOMO1
Assay: cell viability relative to DMSO control; higher = less cytotoxic
Settings: 48 h
Outline: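 NOMO1, SEM and P12-Ichikawa leukemia cells spent at least four passages adapting to each medium before use. They were seeded at 500 cells/well (NOMO1, SEM) or 1000 cells/well (P12-Ichikawa) in 5 μl in 1536-well plates and pin-dosed with library compounds in DMSO at 11 threefold steps from 47 μM down to 0.79 nM. After 48 h at 37°C, CellTiter-Glo One luminescence was read. Viability is reported as a percentage of the DMSO wells on each plate, with cell-free wells as background.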

[1] = HPLM + 10% dialyzed FBS, 0.000781 µM
[2] = HPLM + 10% dialyzed FBS, 0.00234 µM
[3] = HPLM + 10% dialyzed FBS, 0.00702 µM
[4] = HPLM + 10% dialyzed FBS, 0.0211 µM
[5] = HPLM + 10% dialyzed FBS, 0.0632 µM
[6] = HPLM + 10% dialyzed FBS, 0.19 µM
[7] = HPLM + 10% dialyzed FBS, 0.569 µM
[8] = HPLM + 10% dialyzed FBS, 1.71 µM
[9] = HPLM + 10% dialyzed FBS, 5.12 µM
[10] = HPLM + 10% dialyzed FBS, 15.4 µM
[11] = HPLM + 10% dialyzed FBS, 46.1 µM
[12] = RPMI 5 mM glucose + 10% FBS, 0.000781 µM
[13] = RPMI 5 mM glucose + 10% FBS, 0.00234 µM
[14] = RPMI 5 mM glucose + 10% FBS, 0.00702 µM
[15] = RPMI 5 mM glucose + 10% FBS, 0.0211 µM
[16] = RPMI 5 mM glucose + 10% FBS, 0.0632 µM
[17] = RPMI 5 mM glucose + 10% FBS, 0.19 µM
[18] = RPMI 5 mM glucose + 10% FBS, 0.569 µM
[19] = RPMI 5 mM glucose + 10% FBS, 1.71 µM
[20] = RPMI 5 mM glucose + 10% FBS, 5.12 µM
[21] = RPMI 5 mM glucose + 10% FBS, 15.4 µM
[22] = RPMI 5 mM glucose + 10% FBS, 46.1 µM
[23] = RPMI 5 mM glucose + 10% dialyzed FBS, 0.000781 µM
[24] = RPMI 5 mM glucose + 10% dialyzed FBS, 0.00234 µM
[25] = RPMI 5 mM glucose + 10% dialyzed FBS, 0.00702 µM
[26] = RPMI 5 mM glucose + 10% dialyzed FBS, 0.0211 µM
[27] = RPMI 5 mM glucose + 10% dialyzed FBS, 0.0632 µM
[28] = RPMI 5 mM glucose + 10% dialyzed FBS, 0.19 µM
[29] = RPMI 5 mM glucose + 10% dialyzed FBS, 0.569 µM
[30] = RPMI 5 mM glucose + 10% dialyzed FBS, 1.71 µM
[31] = RPMI 5 mM glucose + 10% dialyzed FBS, 5.12 µM
[32] = RPMI 5 mM glucose + 10% dialyzed FBS, 15.4 µM
[33] = RPMI 5 mM glucose + 10% dialyzed FBS, 46.1 µM

CCOc1ccccc1N/N=C1/C(=O)N(c2nc(-c3ccccc3)cs2)N=C1C
cell viability [1]: 118%
cell viability [2]: 122%
cell viability [3]: 119%
cell viability [4]: 123%
cell viability [5]: 113%
cell viability [6]: 117%
cell viability [7]: 115%
cell viability [8]: 108%
cell viability [9]: 103%
cell viability [10]: 57.5%
cell viability [11]: 32.1%
cell viability [12]: 109%
cell viability [13]: 103%
cell viability [14]: 104%
cell viability [15]: 114%
cell viability [16]: 97.3%
cell viability [17]: 109%
cell viability [18]: 101%
cell viability [19]: 97.3%
cell viability [20]: 97.8%
cell viability [21]: 77.1%
cell viability [22]: 56.1%
cell viability [23]: 109%
cell viability [24]: 106%
cell viability [25]: 103%
cell viability [26]: 122%
cell viability [27]: 118%
cell viability [28]: 102%
cell viability [29]: 104%
cell viability [30]: 90.5%
cell viability [31]: 90%
cell viability [32]: 59.8%
cell viability [33]: 39.7%

OC1=C(Cl)C=C(N\C2=C(\C(=O)NC2=O)C3=C(C=CC=C3)[N+]([O-])=O)C=C1
cell viability [1]: 100%
cell viability [2]: 98.3%
cell viability [3]: 103%
cell viability [4]: 106%
cell viability [5]: 120%
cell viability [6]: 106%
cell viability [7]: 83.8%
cell viability [8]: 70%
cell viability [9]: 68.9%
cell viability [10]: 56.8%
cell viability [11]: 60.7%
cell viability [12]: 94.3%
cell viability [13]: 106%
cell viability [14]: 116%
cell viability [15]: 102%
cell viability [16]: 99.5%
cell viability [17]: 95.9%
cell viability [18]: 94.5%
cell viability [19]: 95.4%
cell viability [20]: 86.5%
cell viability [21]: 69.6%
cell viability [22]: 10.1%
cell viability [23]: 90.2%
cell viability [24]: 98.7%
cell viability [25]: 102%
cell viability [26]: 112%
cell viability [27]: 119%
cell viability [28]: 116%
cell viability [29]: 96.4%
cell viability [30]: 94.2%
cell viability [31]: 78.6%
cell viability [32]: 73.9%
cell viability [33]: 12.1%

C[C@H](NC(=O)[C@@H](O)c1cc(F)cc(F)c1)C(=O)N[C@@H]1C(=O)N(C)c2ccccc2-c2ccccc21
cell viability [12]: 103%
cell viability [13]: 115%
cell viability [14]: 106%
cell viability [15]: 122%
cell viability [16]: 109%
cell viability [17]: 114%
cell viability [18]: 104%
cell viability [19]: 86.6%
cell viability [20]: 97.7%
cell viability [21]: 101%
cell viability [22]: 97.3%
cell viability [23]: 119%
cell viability [24]: 116%
cell viability [25]: 119%
cell viability [26]: 113%
cell viability [27]: 113%
cell viability [28]: 105%
cell viability [29]: 101%
cell viability [30]: 113%
cell viability [31]: 102%
cell viability [32]: 97.3%
cell viability [33]: 84.5%

OC(=O)CNC(=O)\C1=C(/O)C2=CC=CC=C2N(CC3=CC=CC=C3)C1=O
cell viability [1]: 98.2%
cell viability [2]: 109%
cell viability [3]: 92%
cell viability [4]: 112%
cell viability [5]: 108%
cell viability [6]: 97.7%
cell viability [7]: 105%
cell viability [8]: 87.3%
cell viability [9]: 109%
cell viability [10]: 101%
cell viability [11]: 93.6%
cell viability [12]: 83.7%
cell viability [13]: 89.5%
cell viability [14]: 100%
cell viability [15]: 91.7%
cell viability [16]: 96.3%
cell viability [17]: 93%
cell viability [18]: 96.2%
cell viability [19]: 83.5%
cell viability [20]: 84.9%
cell viability [21]: 85.1%
cell viability [22]: 86.4%
cell viability [23]: 93%
cell viability [24]: 94.6%
cell viability [25]: 87.9%
cell viability [26]: 101%
cell viability [27]: 95.7%
cell viability [28]: 94%
cell viability [29]: 97.2%
cell viability [30]: 102%
cell viability [31]: 94.7%
cell viability [32]: 93%
cell viability [33]: 74.3%

CC[C@H](C)C(=O)O[C@H]1C[C@@H](C)\C=C2\C=C/[C@H](C)[C@H](CC[C@@H]3C[C@@H](O)CC(=O)O3)[C@@H]12
cell viability [1]: 95.9%
cell viability [2]: 103%
cell viability [3]: 100%
cell viability [4]: 108%
cell viability [5]: 96.3%
cell viability [6]: 92.8%
cell viability [7]: 90.6%
cell viability [8]: 89.9%
cell viability [9]: 93.3%
cell viability [10]: 69.4%
cell viability [11]: 53.5%
cell viability [12]: 87.5%
cell viability [13]: 89.1%
cell viability [14]: 89.7%
cell viability [15]: 98.9%
cell viability [16]: 83.5%
cell viability [17]: 90%
cell viability [18]: 88.4%
cell viability [19]: 80.5%
cell viability [20]: 86.8%
cell viability [21]: 77.1%
cell viability [22]: 71.4%
cell viability [23]: 80.3%
cell viability [24]: 93%
cell viability [25]: 84.6%
cell viability [26]: 97%
cell viability [27]: 91.7%
cell viability [28]: 91%
cell viability [29]: 91.3%
cell viability [30]: 82%
cell viability [31]: 90.7%
cell viability [32]: 77.4%
cell viability [33]: 54.9%

CN1CCN(CC1)C2=CC3=C([NH]C(=N3)C/4=C(\N)C5=C(F)C=CC=C5NC4=O)C=C2
cell viability [1]: 104%
cell viability [2]: 99.7%
cell viability [3]: 98.5%
cell viability [4]: 97.4%
cell viability [5]: 96.3%
cell viability [6]: 102%
cell viability [7]: 97.2%
cell viability [8]: 93.9%
cell viability [9]: 60.8%
cell viability [10]: 49.7%
cell viability [11]: 51.1%
cell viability [12]: 101%
cell viability [13]: 107%
cell viability [14]: 96.7%
cell viability [15]: 107%
cell viability [16]: 111%
cell viability [17]: 109%
cell viability [18]: 107%
cell viability [19]: 104%
cell viability [20]: 87.9%
cell viability [21]: 68.3%
cell viability [22]: 58.6%
cell viability [23]: 92.1%
cell viability [24]: 99.9%
cell viability [25]: 115%
cell viability [26]: 96.1%
cell viability [27]: 99%
cell viability [28]: 102%
cell viability [29]: 100%
cell viability [30]: 92.3%
cell viability [31]: 79.7%
cell viability [32]: 63.1%
cell viability [33]: 53.4%

COc1cc(N2CCN(C)CC2)ccc1Nc1nc(N)c(C(=O)c2c(Cl)cccc2Cl)s1
cell viability [1]: 117%
cell viability [2]: 105%
cell viability [3]: 119%
cell viability [4]: 105%
cell viability [5]: 110%
cell viability [6]: 116%
cell viability [7]: 126%
cell viability [8]: 128%
cell viability [9]: 107%
cell viability [10]: 89%
cell viability [11]: 82.7%
cell viability [12]: 107%
cell viability [13]: 117%
cell viability [14]: 103%
cell viability [15]: 98.7%
cell viability [16]: 103%
cell viability [17]: 118%
cell viability [18]: 102%
cell viability [19]: 105%
cell viability [20]: 104%
cell viability [21]: 98.6%
cell viability [22]: 87.3%
cell viability [23]: 108%
cell viability [24]: 107%
cell viability [25]: 108%
cell viability [26]: 116%
cell viability [27]: 96.6%
cell viability [28]: 114%
cell viability [29]: 103%
cell viability [30]: 109%
cell viability [31]: 102%
cell viability [32]: 105%
cell viability [33]: 89.7%

COc1cccc(N(C)C(=S)Oc2ccc3c(c2)CCCC3)n1
cell viability [1]: 93.3%
cell viability [2]: 95.6%
cell viability [3]: 118%
cell viability [4]: 89.1%
cell viability [5]: 111%
cell viability [6]: 102%
cell viability [7]: 101%
cell viability [8]: 110%
cell viability [9]: 108%
cell viability [10]: 102%
cell viability [11]: 99.6%
cell viability [12]: 85.4%
cell viability [13]: 88.1%
cell viability [14]: 87%
cell viability [15]: 82.2%
cell viability [16]: 103%
cell viability [17]: 90.8%
cell viability [18]: 91%
cell viability [19]: 88.1%
cell viability [20]: 103%
cell viability [21]: 92.2%
cell viability [22]: 105%
cell viability [23]: 82.3%
cell viability [24]: 98.9%
cell viability [25]: 94%
cell viability [26]: 84%
cell viability [27]: 99.5%
cell viability [28]: 97.7%
cell viability [29]: 103%
cell viability [30]: 94.2%
cell viability [31]: 105%
cell viability [32]: 108%
cell viability [33]: 101%
